Data from patent US20230374025A1, “FGFR INHIBITOR COMPOUND AND USE THEREOF” (SHENZHEN KANGSU PHARMACEUTICAL TECHNOLOGY CO., LTD., priority 2021, published 2023).

Legend:
Type in all cases: biochemical
FGFR2 = biological target: T1, FGFR2 (Homo sapiens, UniProt P21802); assay: Assay II: inhibitory activity against wild-type FGFR (HTRF KinEASE-TK); details: ATP 50 μM, substrate TK 1 μM
T1 construct: purchased Carna 08-134
Procedure: (§1) Assay II: Determination of Inhibitory Activity Against Wild-Type FGFR
(§2) 1. Reagents and Equipment
(§3) 2. Experimental Steps PGP-5T
(§4) 2.1 Preparation of 1× Kinase Reaction Buffer:
(§5) 1× Kinase reaction buffer was formulated with 1× volume of 5× kinase reaction buffer and 4× volume of water; 5 mM MgCl2; and 1 mM DTT.
(§6) 2.3 Screening of Compounds:
(§7) 1. Diluting a compound 4-fold in a dilution plate with DMSO, with a starting compound concentration of 2 mM.
(§8) 2. Diluting the compound 40-fold into 1× kinase reaction buffer and shaking it on a shaker for 20 minutes.
(§9) 3. Formulating 2×FGFR1/FGFR2/FGFR3 with 1× of enzyme reaction buffer.
(§10) 4. Adding 2 μl FGFR1/FGFR2/FGFR3 kinase (formulated in step 3) to each well of the reaction plate.
(§11) 5. Adding 1 μl of the compound diluted in buffer to each well, sealing the plate with a sealing membrane and centrifuging the plate at 1000 g for 30 seconds and leaving it at room temperature for 10 minutes.
(§12) 6. Formulating 2.5×TK-substrate-biotin and ATP mixture with 1× enzyme reaction buffer and add 2 μl of K-substrate-biotin/ATP mixture to the reaction plate.
(§13) 7. Sealing the plate with a sealing membrane and centrifuging the plate at 1000 g for 30 seconds and allowing it to react at room temperature for 50 minutes.
(§14) 8. Formulating 4× Sa-XL 665 (250 nM) with HTRF assay buffer.
(§15) 9. Adding 5 μl Sa-XL 665 and 5 μl TK-Antibody-Cryptate to each well, centrifuging it at 1000 g for 30 seconds, and allowing it to react for 1 hour at room temperature.
(§16) 10. Reading fluorescence signals at 615 nm (Cryptate) and 665 nm (XL665) with Biotek.
(§17) 3.1 Calculation of the ratio for each well: the ratio was calculated as 665/615 nm.
(§18) 3.3 Calculation of IC50 and plotting of inhibition curves for the compounds.
(§19) The IC50 (half inhibition concentration) of a compound was obtained using the following non-linear fitting equation, wherein data analysis was performed using Graphpad 6.0 software.
(§20) Y=Bottom+(Top−Bottom)/(1+10^((Log IC50−X)*Hill Slope)) • X: log value of compound concentration; and Y: inhibition rate (% inh)
(§21) 3.4 Validation of Results
(§22) Data were exported from Envision and analyzed manually. The ratios were converted to inhibition rates and IC50 was calculated by Prism GraphPad 6.0 from the inhibition rates. IC50 was calculated again by the ratios to verify accuracy of the results.

FGFR1 = biological target: T2, FGFR1 (Homo sapiens, UniProt P11362); assay: as above; details: ATP 50 μM, substrate TK 1 μM
T2 construct: purchased Carna 08-133
Procedure: as §1, §2, §3, §4, §5, §6, §7, §8, §9, §10, §11, §12, §13, §14, §15, §16, §17, §18, §19, §20, §21, §22

FGFR3 = biological target: T3, FGFR3 (Homo sapiens, UniProt P22607); assay: as above; details: ATP 50 μM, substrate TK 1 μM
T3 construct: purchased Carna 08-135
Procedure: as §1, §2, §3, §4, §5, §6, §7, §8, §9, §10, §11, §12, §13, §14, §15, §16, §17, §18, §19, §20, §21, §22

VEGFR2 = biological target: T4, VEGFR2 (Homo sapiens, UniProt P35968); assay: Assay I: VEGFR2 kinase inhibition (HTRF KinEASE-TK); details: ATP 5 μM, substrate TK 1 μM
T4 construct: purchased Carna 08-191
How it was run: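 HTRF KinEASE-TK assay: kinase preincubated 10 min at room temperature with 4-fold compound dilutions (2 mM DMSO starting stock), then TK-substrate-biotin/ATP added for 50 min at room temperature in buffer with 5 mM MgCl2, 1 mM DTT. 665/615 nm ratio converted to % inhibition; IC50 by four-parameter fit.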

FGFR3 V555M = biological target: T5, FGFR3 V555M (Homo sapiens, UniProt P22607, V555M); assay: Assay I: inhibitory activity against FGFR mutants (HTRF KinEASE-TK); details: ATP 20 μM, substrate TK 1 μM
T5 construct: purchased Signalchem F06-12GG
How it was run: (§23)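 HTRF KinEASE-TK on FGFR mutant kinases in buffer with 5 mM MgCl2, 1 mM DTT; compound 4-fold serial dilutions (2 mM DMSO start) preincubated 10 min, then TK-substrate-biotin/ATP, 50 min at room temperature. 665/615 nm ratio converted to % inhibition; IC50 from four-parameter fit.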

FGFR2 V564F = biological target: T6, FGFR2 V564F (Homo sapiens, UniProt P21802, V564F); assay: as above; details: ATP 10 μM, substrate TK 1 μM
T6 construct: purchased Signalchem F05-12FG
How it was run: as §23

FGFR1 V561M = biological target: T7, FGFR1 V561M (Homo sapiens, UniProt P11362, V561M); assay: as above; details: ATP 5 μM, substrate TK 1 μM
T7 construct: purchased Signalchem F04-13G
How it was run: as §23

T2 sequence (P11362 22-822): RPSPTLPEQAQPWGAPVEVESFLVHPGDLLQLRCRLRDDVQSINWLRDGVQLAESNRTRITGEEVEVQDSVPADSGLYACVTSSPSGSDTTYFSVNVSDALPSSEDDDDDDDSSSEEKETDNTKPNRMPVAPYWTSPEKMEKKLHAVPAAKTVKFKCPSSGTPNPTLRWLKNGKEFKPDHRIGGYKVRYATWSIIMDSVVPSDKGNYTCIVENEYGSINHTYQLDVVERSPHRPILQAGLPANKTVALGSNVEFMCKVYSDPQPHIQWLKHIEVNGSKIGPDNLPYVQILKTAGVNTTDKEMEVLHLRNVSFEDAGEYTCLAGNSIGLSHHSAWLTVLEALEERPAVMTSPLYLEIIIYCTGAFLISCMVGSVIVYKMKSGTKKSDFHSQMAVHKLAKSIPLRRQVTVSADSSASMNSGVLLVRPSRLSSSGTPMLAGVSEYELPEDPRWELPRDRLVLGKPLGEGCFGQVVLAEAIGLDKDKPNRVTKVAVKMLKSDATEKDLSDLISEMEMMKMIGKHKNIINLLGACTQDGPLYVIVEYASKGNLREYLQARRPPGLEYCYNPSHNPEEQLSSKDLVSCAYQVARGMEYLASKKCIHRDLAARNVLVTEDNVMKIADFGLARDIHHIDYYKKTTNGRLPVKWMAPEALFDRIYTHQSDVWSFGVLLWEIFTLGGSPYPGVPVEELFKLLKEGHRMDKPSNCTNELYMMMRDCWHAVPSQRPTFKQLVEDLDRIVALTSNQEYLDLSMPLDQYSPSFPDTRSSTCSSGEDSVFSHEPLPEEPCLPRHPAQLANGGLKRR
T4 sequence (P35968 20-1356): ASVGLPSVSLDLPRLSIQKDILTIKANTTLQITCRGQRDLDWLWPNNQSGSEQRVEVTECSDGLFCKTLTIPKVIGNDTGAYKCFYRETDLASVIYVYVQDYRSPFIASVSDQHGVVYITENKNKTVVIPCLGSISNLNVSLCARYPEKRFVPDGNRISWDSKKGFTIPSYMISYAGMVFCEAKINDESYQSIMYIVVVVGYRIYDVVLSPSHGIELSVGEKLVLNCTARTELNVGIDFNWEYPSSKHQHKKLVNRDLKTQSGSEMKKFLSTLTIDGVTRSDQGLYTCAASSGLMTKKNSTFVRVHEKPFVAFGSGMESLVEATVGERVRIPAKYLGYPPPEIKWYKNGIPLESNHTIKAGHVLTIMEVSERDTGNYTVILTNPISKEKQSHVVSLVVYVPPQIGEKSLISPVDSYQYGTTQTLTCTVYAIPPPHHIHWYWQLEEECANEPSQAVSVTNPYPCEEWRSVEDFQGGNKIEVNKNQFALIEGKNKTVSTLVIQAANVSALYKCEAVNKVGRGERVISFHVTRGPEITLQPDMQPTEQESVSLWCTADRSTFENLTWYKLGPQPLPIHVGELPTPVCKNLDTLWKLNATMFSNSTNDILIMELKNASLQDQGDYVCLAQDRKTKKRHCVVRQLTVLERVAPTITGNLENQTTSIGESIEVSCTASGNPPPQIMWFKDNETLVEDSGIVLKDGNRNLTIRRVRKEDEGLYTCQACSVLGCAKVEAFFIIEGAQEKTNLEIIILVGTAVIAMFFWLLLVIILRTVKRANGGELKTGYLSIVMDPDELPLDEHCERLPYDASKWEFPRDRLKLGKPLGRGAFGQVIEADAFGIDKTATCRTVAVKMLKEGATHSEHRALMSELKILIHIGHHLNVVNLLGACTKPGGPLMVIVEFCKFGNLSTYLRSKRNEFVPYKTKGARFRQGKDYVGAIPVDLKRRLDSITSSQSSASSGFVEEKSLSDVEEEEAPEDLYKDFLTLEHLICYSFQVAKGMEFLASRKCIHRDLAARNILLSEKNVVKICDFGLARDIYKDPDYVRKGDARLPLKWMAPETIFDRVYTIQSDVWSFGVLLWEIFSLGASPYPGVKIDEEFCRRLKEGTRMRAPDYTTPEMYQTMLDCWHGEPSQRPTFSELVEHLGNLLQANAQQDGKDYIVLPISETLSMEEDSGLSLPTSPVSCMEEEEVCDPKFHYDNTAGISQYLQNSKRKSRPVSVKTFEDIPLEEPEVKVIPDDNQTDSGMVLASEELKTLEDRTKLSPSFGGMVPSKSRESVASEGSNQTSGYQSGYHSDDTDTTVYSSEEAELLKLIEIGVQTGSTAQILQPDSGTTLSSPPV
T1 sequence (P21802 22-821): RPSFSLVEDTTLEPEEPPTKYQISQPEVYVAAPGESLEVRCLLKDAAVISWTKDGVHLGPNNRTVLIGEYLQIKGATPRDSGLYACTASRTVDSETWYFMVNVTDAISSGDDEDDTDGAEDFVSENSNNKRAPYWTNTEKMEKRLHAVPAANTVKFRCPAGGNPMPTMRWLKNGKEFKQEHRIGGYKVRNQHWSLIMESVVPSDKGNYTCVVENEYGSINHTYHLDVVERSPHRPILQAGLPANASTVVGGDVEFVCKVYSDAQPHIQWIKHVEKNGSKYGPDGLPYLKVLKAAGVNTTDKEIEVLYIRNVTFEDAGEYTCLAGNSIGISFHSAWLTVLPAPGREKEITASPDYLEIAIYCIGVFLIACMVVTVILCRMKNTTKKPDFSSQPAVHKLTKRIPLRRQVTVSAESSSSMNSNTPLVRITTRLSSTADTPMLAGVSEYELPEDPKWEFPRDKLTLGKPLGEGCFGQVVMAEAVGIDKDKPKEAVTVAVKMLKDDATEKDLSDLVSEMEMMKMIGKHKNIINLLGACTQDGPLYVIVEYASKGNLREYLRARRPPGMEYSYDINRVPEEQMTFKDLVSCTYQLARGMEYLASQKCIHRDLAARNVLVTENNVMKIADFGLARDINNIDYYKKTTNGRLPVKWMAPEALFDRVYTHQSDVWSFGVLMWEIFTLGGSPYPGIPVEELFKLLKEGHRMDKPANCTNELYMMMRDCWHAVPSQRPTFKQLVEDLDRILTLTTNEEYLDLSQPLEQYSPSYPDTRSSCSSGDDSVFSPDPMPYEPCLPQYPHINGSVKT
T7 sequence (P11362 22-822 V561M): as the sequence (P11362 22-822) above, with V540M counted along it
T3 sequence (P22607 23-806): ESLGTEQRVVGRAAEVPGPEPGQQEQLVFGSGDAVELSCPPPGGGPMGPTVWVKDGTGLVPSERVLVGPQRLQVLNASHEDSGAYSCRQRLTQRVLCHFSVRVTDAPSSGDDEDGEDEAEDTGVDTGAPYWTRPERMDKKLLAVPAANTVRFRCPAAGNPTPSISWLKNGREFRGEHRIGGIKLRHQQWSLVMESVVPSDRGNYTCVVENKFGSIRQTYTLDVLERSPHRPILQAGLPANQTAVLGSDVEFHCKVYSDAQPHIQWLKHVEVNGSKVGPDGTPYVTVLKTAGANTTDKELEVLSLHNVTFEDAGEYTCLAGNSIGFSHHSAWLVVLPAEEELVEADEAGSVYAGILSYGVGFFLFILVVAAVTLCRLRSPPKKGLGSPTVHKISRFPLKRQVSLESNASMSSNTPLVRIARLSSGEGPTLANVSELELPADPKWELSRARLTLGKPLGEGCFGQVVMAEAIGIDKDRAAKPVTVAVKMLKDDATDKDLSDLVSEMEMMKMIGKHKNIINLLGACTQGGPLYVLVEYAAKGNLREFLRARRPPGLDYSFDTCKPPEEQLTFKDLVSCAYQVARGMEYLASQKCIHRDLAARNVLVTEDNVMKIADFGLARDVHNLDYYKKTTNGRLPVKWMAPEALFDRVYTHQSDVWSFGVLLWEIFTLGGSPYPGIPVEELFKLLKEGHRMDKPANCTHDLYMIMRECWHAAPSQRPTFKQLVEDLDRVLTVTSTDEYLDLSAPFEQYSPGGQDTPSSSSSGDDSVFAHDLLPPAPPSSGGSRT
T5 sequence (P22607 397-806 V555M limits assumed): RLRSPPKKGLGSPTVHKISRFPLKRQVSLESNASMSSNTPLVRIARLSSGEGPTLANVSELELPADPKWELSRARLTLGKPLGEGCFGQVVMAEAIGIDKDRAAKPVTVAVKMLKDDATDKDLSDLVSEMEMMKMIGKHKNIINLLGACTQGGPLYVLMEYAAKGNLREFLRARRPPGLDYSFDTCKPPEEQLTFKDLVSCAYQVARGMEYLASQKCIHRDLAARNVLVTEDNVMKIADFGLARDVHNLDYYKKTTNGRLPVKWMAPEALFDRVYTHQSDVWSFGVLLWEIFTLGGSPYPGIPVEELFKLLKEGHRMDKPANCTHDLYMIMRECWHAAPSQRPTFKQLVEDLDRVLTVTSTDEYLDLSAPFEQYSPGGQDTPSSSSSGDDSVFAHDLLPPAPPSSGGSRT
T6 sequence (P21802 22-821 V564F): as the sequence (P21802 22-821) above, with V543F counted along it

- IC50 (FGFR2): 2.2 nM
- IC50 (FGFR1): 3.1 nM
- IC50 (FGFR3): 3.4 nM
- IC50 (VEGFR2): 2.4 nM
- IC50 (FGFR3 V555M): 0.35 nM
- IC50 (FGFR2 V564F): 0.33 nM
- IC50 (FGFR1 V561M): 0.2 nM
Structure (SMILES): CC(Oc1ccc2[nH]nc(-c3nc4c([nH]3)CN(C(=O)N3CC[C@H](O)C3)C4)c2c1)c1c(Cl)cncc1Cl (stereo partly drawn) [Compound 10, (2-(5-(1-(3,5-dichloropyridin-4-yl)ethoxy)-1H-indazol-3-yl)-4,6-dihydropyrrolo[3,4-d]imidazol-5(1H)-yl)((S)-3-hydroxypyrrolidin-1-yl)ketone]
